PubChem BioAssay (NCI)
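1) Cells in 96-well plates. 2) Compound, 48 h, 5 concentrations. 3) Linear interpolation between surrounding doses. 4) Unreached endpoint = highest concentration. GI50 = concentration required for 50% inhibition of growth. TGI: total growth inhibition.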

Legend:
Assay in all cases: NCI tumour cell line growth inhibition, 48 h
OVCAR-3 ovarian = tested on: OVCAR-3 ovarian
SF-539 CNS = tested on: SF-539 CNS
OVCAR-8 ovarian = tested on: OVCAR-8 ovarian
CCRF-CEM leukemia = tested on: CCRF-CEM leukemia
SK-MEL-2 melanoma = tested on: SK-MEL-2 melanoma
HOP-92 NSCLC = tested on: HOP-92 NSCLC
OVCAR-4 ovarian = tested on: OVCAR-4 ovarian
NCI-H460 lung = tested on: NCI-H460 lung
HOP-62 NSCLC = tested on: HOP-62 NSCLC

| SMILES | GI50 (OVCAR-3 ovarian) [µM] | TGI (OVCAR-3 ovarian) [µM] | GI50 (SF-539 CNS) [µM] | TGI (SF-539 CNS) [µM] | GI50 (OVCAR-8 ovarian) [µM] | TGI (OVCAR-8 ovarian) [µM] | GI50 (CCRF-CEM leukemia) [nM] | TGI (CCRF-CEM leukemia) [µM] | GI50 (SK-MEL-2 melanoma) [nM] | TGI (SK-MEL-2 melanoma) [µM] | GI50 (HOP-92 NSCLC) [nM] | TGI (HOP-92 NSCLC) [µM] | GI50 (OVCAR-4 ovarian) [µM] | TGI (OVCAR-4 ovarian) [µM] | GI50 (NCI-H460 lung) [µM] | TGI (NCI-H460 lung) [µM] | GI50 (HOP-62 NSCLC) [µM] | TGI (HOP-62 NSCLC) [µM] |
| --- | --- | --- | --- | --- | --- | --- | --- | --- | --- | --- | --- | --- | --- | --- | --- | --- | --- | --- |
| CCC[CH2][Sn]1([CH2]CCC)[O]C(c2ccccn2)S(=O)(=O)[O]1 (stereo unspecified) | 3.06 | 11.6 | 1.74 | 3.93 | 2.06 | 4.79 | 1540 | 4.19 | 1700 | 3.22 | 1410 | 2.86 | 6.86 | 20.1 | 16.8 | 30.4 | 28.1 | 43 |
| OCCN1CCN(CCO)Cc2ccccc2OCCOc2ccccc2C1 |  | > 100 |  | > 100 |  | > 100 |  | > 100 |  | > 100 |  | > 100 |  | > 100 |  | > 100 |  | > 100 |
| CC1=CC(=O)C(C)(C2=NC(C)(C)CO2)c2ccccc21 (stereo unspecified) |  | > 100 |  | > 100 |  | > 100 |  | > 100 |  | > 100 |  | > 100 |  | > 100 |  | > 100 |  | > 100 |
| CCN1C(C)=NC2C(=O)c3ccccc3C(=O)C21 (stereo unspecified) |  | > 100 |  | > 100 |  | > 100 |  | > 100 |  | > 100 |  |  |  | 62.7 |  | > 100 |  | > 100 |
| CC1(C)CC23C(=O)N(c4ccccc4)C(=Nc4ccccc4)NC2=CC(C#N)=C(C#N)C3O1 (stereo unspecified) |  | > 100 |  | > 100 |  | > 100 |  | > 100 |  | > 100 |  | 52.2 |  | > 100 |  | > 100 |  | > 100 |
| COc1cccc(/C=C(/C(=O)O)c2cc(OC)c(OC)c(OC)c2)c1 |  | > 100 |  | > 100 |  | > 100 |  | > 100 |  |  |  | > 100 |  | > 100 |  | > 100 |  | > 100 |
| CC(C#N)c1cn(S(=O)(=O)c2ccccc2)c2ccccc12 (stereo unspecified) |  | > 100 |  | > 100 |  | > 100 |  | > 100 |  | > 100 |  | 53.8 |  | > 100 |  | > 100 |  | > 100 |
| C/C(CC(=O)CCCC(=O)Nc1ccc(Cl)cc1Cl)=N/NC(=O)CC#N |  | > 100 |  | > 100 |  | > 100 |  | > 100 |  | > 100 |  |  |  | > 100 |  | > 100 |  |  |
| C/C(=N\O)c1sc(-n2nc(-c3ccccc3)cc2-c2ccccc2)nc1C |  | > 31.6 |  | 16.7 |  | 18.1 |  | 25.6 |  | > 65.6 |  |  |  |  |  | 21.6 |  | 22.2 |
| CC[O-].CC[O-].[O-]c1ccccc1C=Nc1ccccc1.[O-]c1ccccc1C=Nc1ccccc1.[Ti+4] | > 100 | > 100 | > 100 | > 100 | 97.3 | > 100 | 10900 | > 100 |  |  | > 100000 | > 100 | > 100 | > 100 | > 100 | > 100 | > 100 | > 100 |
| CC(=O)[CH-]C(=O)c1ccccc1.CC(=O)[CH-]C(=O)c1ccccc1.O=C([O-])C[O-].O=C([O-])C[O-].[Ti+4] | 42.7 | > 100 | 41.8 | > 100 | 77 | > 100 |  |  | 30500 | > 100 |  |  | 41 | > 100 | 28.4 | > 100 | 58.7 | > 100 |
| O=C1c2ccccc2C(=O)N1/N=C\c1ccc(Br)cc1 | > 100 | > 100 | > 100 | > 100 | > 100 | > 100 | > 100000 | > 100 | > 100000 | > 100 | > 100000 | > 100 | > 100 | > 100 |  | > 10 | > 100 | > 100 |
| C[C@H]1CCC/C=C/[C@@H]2C[C@H](O)C[C@H]2[C@H](O)[C@H](S(=O)c2ccc(O)cc2)CC(=O)O1 (stereo partly specified) | 0.021 | 1.02 | < 0.0157 | > 36.4 | < 0.0167 | 0.238 | 48 |  | 48.5 | 0.504 | 52.9 | > 100 | 0.0231 | 0.978 | 0.0168 | 0.0703 | 0.0855 | > 65.6 |
| Cc1cc(C)c(C(=O)O)c(N)c1O |  | > 100 |  |  |  | > 100 |  | > 100 |  | > 100 |  |  |  | > 100 |  |  |  | > 100 |
| Nn1c(CCCl)nc2c(Br)cc(Br)cc2c1=O |  | 39.8 |  | > 91.4 |  | > 100 |  | 20.3 |  | > 90.9 |  | > 90.8 |  | 69.3 |  | 65.1 |  | 71.8 |
| CC1(C)CCC(=O)c2c(O)ccc(O)c21 |  | > 100 |  | > 100 |  | > 100 |  |  |  | > 100 |  | 76.9 |  | > 100 |  |  |  |  |

| SMILES | GI50 (OVCAR-3 ovarian) [µM] | TGI (OVCAR-3 ovarian) [µM] | GI50 (SF-539 CNS) [µM] | TGI (SF-539 CNS) [µM] | GI50 (OVCAR-8 ovarian) [µM] | TGI (OVCAR-8 ovarian) [µM] | GI50 (CCRF-CEM leukemia) [nM] | TGI (CCRF-CEM leukemia) [µM] | GI50 (SK-MEL-2 melanoma) [nM] | TGI (SK-MEL-2 melanoma) [µM] | GI50 (HOP-92 NSCLC) [nM] | TGI (HOP-92 NSCLC) [µM] | GI50 (OVCAR-4 ovarian) [µM] | TGI (OVCAR-4 ovarian) [µM] | GI50 (NCI-H460 lung) [µM] | TGI (NCI-H460 lung) [µM] | GI50 (HOP-62 NSCLC) [µM] | TGI (HOP-62 NSCLC) [µM] |
| --- | --- | --- | --- | --- | --- | --- | --- | --- | --- | --- | --- | --- | --- | --- | --- | --- | --- | --- |
| COC(=O)C1=CC(O)CCC1c1ccc(OC)cc1 (stereo unspecified) |  | > 100 |  | > 100 |  | > 100 |  | > 100 |  | > 100 |  | > 100 |  | > 100 |  | > 100 |  | > 100 |
| CCCCCCCC[N+](C)(C)Cc1ccc(C[N+](C)(C)CCCCCCCC)cc1 |  | > 100 |  |  |  | > 100 |  | > 100 |  | > 100 |  | 88.1 |  | > 100 |  | > 100 |  | > 100 |
| CN1CCC23c4c5ccc(O)c4OC2C(=NN=C2CCC4(O)C6Cc7ccc(O)c8c7C4(CCN6C)C2O8)CCC3(O)C1C5 (stereo unspecified) |  | > 100 |  | > 100 |  | > 100 |  | > 100 |  | > 100 |  | > 100 |  | > 100 |  | > 100 |  | > 100 |
| CN1C(=O)n2c(nc3ccccc32)C(N=[N+]=[N-])(N=[N+]=[N-])C1=O (stereo unspecified) |  | > 100 |  | > 100 |  | > 100 |  | > 100 |  | > 100 |  | > 100 |  | > 100 |  | > 100 |  | > 100 |
| COc1cc(C(=O)C/C(CCC(=O)Nc2ccccc2[N+](=O)[O-])=N\NC(=O)C(N)=O)ccc1O |  | > 100 |  | > 100 |  | > 100 |  | > 100 |  | > 100 |  | > 100 |  | > 100 |  | > 100 |  | > 100 |
| CCCCCCCCCOC(=S)NC |  | 36.1 |  | 32.5 |  | 44.9 |  | 47.7 |  | 41 |  | 42.5 |  | 42.2 |  | 36.3 |  |  |
| CCOC(=O)/C(=C/c1ccc(OC)c(OC)c1)C(=O)c1ccccc1 |  | 33.6 |  |  |  | 76.8 |  | 55.1 |  | > 100 |  |  |  | 60.3 |  | > 100 |  | 35.6 |
| O=c1c(O)c(-c2ccc(O)c(O)c2)oc2cc(O)ccc12 |  | 62 |  | 26.7 |  | 56.3 |  | > 71.1 |  | 23.2 |  | 71.8 |  | > 100 |  | 29.2 |  | > 100 |
| Cc1cc(N(CCC#N)CCC#N)ccc1/C=C1/CN(N2C(=O)/C(=C/c3ccc(N(CCC#N)CCC#N)cc3C)N=C2c2ccccc2)C(c2ccccc2)=N1 |  | > 100 |  | > 100 |  | > 100 |  | > 100 |  |  |  | > 100 |  | > 100 |  | > 100 |  | > 100 |
| CCOC(=O)C1Cc2c(ccc(OC)c2OC)C(=O)C1N (stereo unspecified) |  | > 100 |  | > 100 |  | > 100 |  | > 100 |  | > 100 |  | > 100 |  | > 100 |  | > 100 |  | > 100 |
| COc1ccccc1/C=C/C(=O)c1sc(-c2cccnc2)nc1C |  | > 100 |  | > 100 |  | > 100 |  | > 100 |  | > 100 |  | > 100 |  |  |  | > 100 |  | > 100 |
| CCOC(=O)C12CCCC1(O)N(NC(=O)c1cccc(Cl)c1)C(C)=C2C(=O)OC (stereo unspecified) |  | > 100 |  | > 100 |  | > 100 |  |  |  | > 100 |  |  |  | > 100 |  | > 100 |  | > 100 |
| CCCC(OCC)(OCC)OCC |  | > 100 |  | > 100 |  | > 100 |  | > 100 |  | > 100 |  | > 100 |  | > 100 |  | > 100 |  | > 100 |
| O=C(O)/C(Cl)=C(\Cl)Nc1cccc(C(F)(F)F)c1 |  | > 100 |  |  |  | > 100 |  | > 100 |  |  |  | 22.3 |  | > 100 |  | > 100 |  | > 100 |
| C=C1C(=O)O[C@@H]2[C@H]1CC[C@H](C)[C@]1(O)CCC(=O)[C@@]21C |  | > 10 |  | > 10 |  | > 10 |  | > 10 |  | > 10 |  | > 10 |  | > 10 |  |  |  | > 10 |
| CSc1nc(NC2OCC(OC(C)=O)C(OC(C)=O)C2OC(C)=O)c(N=CC=Nc2c(NC3OCC(OC(C)=O)C(OC(C)=O)C3OC(C)=O)nc(SC)n(C)c2=O)c(=O)n1C (stereo unspecified) |  | > 100 |  | > 100 |  | > 100 |  |  |  | > 100 |  | > 100 |  | > 100 |  | > 100 |  | > 100 |
